For the assay, the target named is T1, human H-PGDS (Homo sapiens, UniProt O60760).
T1 construct: Full length human H-PGDS cDNA (Invitrogen Ultimate ORF IOH13026) was amplified by PCR; 6-His (N); TEV protease cleavage site (N); made in house; host or cells: E. coli BL21 (DE3*) for H-PGDS; Sf9 insect cells (baculovirus) for COX-2
Description: H-PGDS RapidFire high throughput mass spectrometry assay. It is filed as biochemical. Particulars: inhibition of conversion of PGH2 to PGD2 by H-PGDS; for IC50: mean pIC50, read-out: Potency Range (mean pIC50) (converted). How it is done:
H-PGDS RapidFire™ High Throughput Mass Spectrometry Assay
The H-PGDS RapidFire™ mass spectrometric assay monitors conversion of prostaglandin H2 (PGH2) to prostaglandin D2 (PGD2) by haematopoietic prostaglandin D synthase (H-PGDS). In the assay format described here, the substrate (PGH2) is formed in situ by the action of cyclooxygenase-2 on arachidonic acid. This first step is set up to be fast, and generates a burst of PGH2 at ˜10 μM. The PGH2 is then further converted to PGD2 by the H-PGDS enzyme. […] Plates are then read on the RapidFire™ high throughput solid phase extraction system (Agilent) which incorporates a solid phase extraction step coupled to a triple quadrupole mass spectrometer (AB SCIEX). Relative levels of PGD2 and PGF2α, which acts as a surrogate for substrate, are measured and a percent conversion calculated. Inhibitors are characterised as compounds which lower the conversion of PGH2 to PGD2.
Full length human H-PGDS cDNA (Invitrogen Ultimate ORF IOH13026) was amplified by PCR with the addition of a 5′ 6-His tag and TEV protease cleavage site. The PCR product was digested with NdeI and XhoI and ligated into pET22b+ (Merck Novagen®). Expression was carried out in E. coli strain BL21 (DE3*) using auto-induction Overnight Express™ Instant TB medium (Merck Novagen®) supplemented with 1% glycerol. The culture was first grown at 37° C. and the temperature was reduced to 25° C. when OD600 reached 2.0. Cells were harvested by centrifugation after a further 18 hours. 10 g of E. coli cell pellet was suspended to a total volume of 80 mL in lysis buffer (20 mM Tris-Cl pH 7.5, 300 mM NaCl, 20 mM imidazole, 5 mM p-mercaptoethanol, 10% glycerol). 1 mg/mL protease inhibitors (Protease Inhibitor Cocktail Set III, Merck Calbiochem®) and 1 mg/mL lysozyme were added to the cell suspension. The suspension was then sonicated for 5 min (UltraSonic Processor VCX 750, Cole-Parmer Instrument Co.) with a micro probe (50% amplitude, 10 sec on/off) and then centrifuged at 100,000 g for 90 minutes (at 4° C.). The supernatant was loaded onto a Ni-NTA HiTrap column (5 mL, GE Healthcare, pre-equilibrated in lysis buffer). The column was washed with 10 column volumes of lysis buffer and eluted with lysis buffer containing 500 mM imidazole. The pooled protein peak fractions were concentrated using a 10 kDa centrifugal filter at 3500 g and 4° C. (Amicon Ultra-15 centrifugal filter unit with Ultracel-10 membrane from Millipore). Further purification of the concentrated protein was carried out using gel filtration chromatography on a HiLoad 26/600 Superdex 75 preparative grade column (GE Healthcare Life Sciences) using 50 mM Tris pH 7.5, 50 mM NaCl, 1 mM dithiothreitol, 1 mM MgCl2. Fractions containing the protein were pooled, concentrated as described above, and stored at −80° C.
The full length human COX-2 gene (accession number L15326) was amplified by PCR to generate an EcoRI—HindIII fragment containing an in-frame FLAG tag. This was subcloned into pFastBac 1 (Invitrogen). The COX-2 FLAG plasmid was recombined into the baculovirus genome according to the BAC-to-BAC protocol described by Invitrogen. Transfection into Spodoptera frugiperda (Sf9) insect cells was performed using Cellfectin (Invitrogen), according to the manufacturer's protocol. Super Sf9 cells were cultured in EX420 media (SAFC Biosciences) to a density of approximately 1.5×10^6 cells/mL within a wave bioreactor. Recombinant virus was added at a Multiplicity of Infection (MOI) of 5 and the culture was allowed to continue for 3 days. Cells were harvested using a continuous feed centrifuge run at 2500 g at a rate of approximately 2 L/min with cooling. The resultant cell slurry was re-centrifuged in pots (2500 g, 20 min, 4° C.) and the cell paste was stored at −80° C. […]

The record followed here is patent publication US20220009918A1, “Chemical Compounds” (GlaxoSmithKline Intellectual Property Development Limited, priority 2018, published 2022).

T1 sequence (O60760 whole entry): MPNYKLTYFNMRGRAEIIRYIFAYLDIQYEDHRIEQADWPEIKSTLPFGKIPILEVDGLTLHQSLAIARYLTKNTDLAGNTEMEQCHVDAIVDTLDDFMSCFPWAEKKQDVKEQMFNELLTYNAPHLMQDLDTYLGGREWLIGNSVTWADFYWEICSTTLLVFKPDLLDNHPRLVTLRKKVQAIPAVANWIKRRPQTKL

For `O=C(NC1CCNC1=O)c1cnc(-c2cccc(Cl)c2)s1` (racemic) [Example 2, Racemic 2-(3-Chlorophenyl)-N-(2-oxopyrrolidin-3-yl)thiazole-5-carboxamide], the IC50 was 10.2 to 100 nM. Same read-out and setting: the figure for `CC1(C)CC(NC(=O)c2cnc(-c3cc(F)cc(Cl)c3)s2)C(=O)N1` (racemic) [Example 14, Racemic 2-(3-Chloro-5-fluorophenyl)-N-(5,5-dimethyl-2-oxopyrrolidin-3-yl)thiazole-5-carboxamide] is 10.2 to 100 nM. For `CC1(C)CC(NC(=O)c2cnc(-c3cc(F)cc(C(F)F)c3)s2)C(=O)N1` (racemic) [Example 18, Racemic 2-(3-(Difluoromethyl)-5-fluorophenyl)-N-(5,5-dimethyl-2-oxopyrrolidin-3-yl)thiazole-5-carboxamide], the IC50 was 10.2 to 100 nM. Regarding `O=C(NC1CC2(CC2)NC1=O)c1cnc(-c2cc(F)cc(Cl)c2)s1` (racemic) [Example 20, Racemic 2-(3-Chloro-5-fluorophenyl)-N-(5-oxo-4-azaspiro[2.4]heptan-6-Yl)thiazole-5-carboxamide], the IC50 is 10.2 to 100 nM.

For `CCC1(CC)CNC(=O)C1NC(=O)c1cnc(-c2cc(F)cc(Cl)c2)s1` (racemic) [Example 23, Racemic 2-(3-Chloro-5-fluorophenyl)-N-(4,4-diethyl-2-oxopyrrolidin-3-yl)thiazole-5-carboxamide], the IC50 is 102 to 1000 nM. Consider `O=C(NC1CC2(CCC2)NC1=O)c1cnc(-c2cc(F)cc(Cl)c2)s1` (racemic) [Example 27, Racemic 2-(3-Chloro-5-fluorophenyl)-N-(6-oxo-5-azaspiro[3.4]octan-7-v)thiazole-5-carboxamide], for which the IC50 is 10.2 to 100 nM. Same read-out and setting: then `C[C@H]1[C@H](C)NC(=O)[C@@H]1NC(=O)c1cnc(-c2cc(F)cc(Cl)c2)s1` (racemic) [Example 34, Racemic 2-(3-Chloro-5-fluorophenyl)-N-((3R,4S,5S)-4,5-dimethyl-2-oxopyrrolidin-3-yl)thiazole-5-carboxamide; and 2-(3-Chloro-5-fluorophenyl)-N-((3S,4R,5R)-4,5-dimethyl-2-oxopyrrolidin-3-yl)thiazole-5-carboxamide], with 10.2 to 100 nM; and `O=C(N[C@H]1C(=O)N[C@@H]2CCC[C@@H]21)c1cnc(-c2cc(F)cc(Cl)c2)s1` (racemic) [Example 49, Racemic 2-(3-Chloro-5-fluorophenyl)-N-((3R,3aS,6aR)-2-oxooctahydrocyclopenta[b]pyrrol-3-yl)thiazole-5-carboxamide; and 2-(3-Chloro-5-fluorophenyl)-N-((3S,3aR,6aS)-2-oxooctahydrocyclopenta[b]pyrrol-3-yl)thiazole-5-carboxamide], with 1.02 to 10 nM; and `O=C(N[C@@H]1C(=O)N[C@H]2COC[C@H]21)c1cnc(-c2cc(F)cc(Cl)c2)s1` (racemic) [Example 52, Racemic 2-(3-Chloro-5-fluorophenyl)-N-((3S,3aR,6aR)-2-oxohexahydro-1H-furo[3,4-b]pyrrol-3-yl)thiazole-5-carboxamide; and 2-(3-Chloro-5-fluorophenyl)-N-((3R,3aS,6aS)-2-oxohexahydro-1H-furo[3,4-b]pyrrol-3-yl)thiazole-5-carboxamide], with 10.2 to 100 nM.

As to `O=C(NC1CC2(COC2)NC1=O)c1cnc(-c2cc(F)cc(Cl)c2)s1` (racemic) [Example 55, Racemic 2-(3-Chloro-5-fluorophenyl)-N-(6-oxo-2-oxa-5-azaspiro[3.4]octan-7-yl)thiazole-5-carboxamide], the IC50 is 1.02 to 10 nM. Still for that read-out and setting: then `O=C(N[C@H]1C(=O)N[C@H]2CCC[C@H]21)c1cnc(-c2cc(F)cc(Cl)c2)s1` (racemic) [Example 58, Racemic 2-(3-Chloro-5-fluorophenyl)-N-((3R,3aR,6aS)-2-oxooctahydrocyclopenta[b]pyrrol-3-yl)thiazole-5-carboxamide; and 2-(3-Chloro-5-fluorophenyl)-N-((3S,3aS,6aR)-2-oxooctahydrocyclopenta[b]pyrrol-3-yl)thiazole-5-carboxamide], with 10.2 to 100 nM; and `CN1CCC(NC(=O)c2cnc(-c3cc(F)cc(Cl)c3)s2)C1=O` (racemic) [Example 63, Racemic 2-(3-Chloro-5-fluorophenyl)-N-(1-methyl-2-oxopyrrolidin-3-yl)thiazole-5-carboxamide], with 10.2 to 100 nM; and `CN(C(=O)c1cnc(-c2cc(F)cc(Cl)c2)s1)C1CCNC1=O` (racemic) [Example 65, Racemic 2-(3-Chloro-5-fluorophenyl)-N-methyl-N-(2-oxopyrrolidin-3-yl)thiazole-5-carboxamide], with 1020 to 10000 nM.

On to `COc1ccc(CN2CCC(C)(NC(=O)c3cnc(-c4cc(F)cc(Cl)c4)s3)C2=O)cc1` (racemic) [Example 70, Racemic 2-(3-Chloro-5-fluorophenyl)-N-(1-(4-methoxybenzyl)-3-methyl-2-oxopyrrolidin-3-yl)thiazole-5-carboxamide], for which the IC50 is 102 to 1000 nM. With `CC1(NC(=O)c2cnc(-c3cc(F)cc(Cl)c3)s2)CCNC1=O` (racemic) [Example 71, Racemic 2-(3-Chloro-5-fluorophenyl)-N-(3-methyl-2-oxopyrrolidin-3-yl)thiazole-5-carboxamide], the IC50 is 102 to 1000 nM.

Consider `C[C@H]1CNC(=O)[C@H]1NC(=O)c1cnc(-c2cc(F)cc(Cl)c2)s1` (racemic) [Example 74, Racemic cis-2-(3-Chloro-5-fluorophenyl)-N-(4-methyl-2-oxopyrrolidin-3-yl)thiazole-5-carboxamide], for which the “Potency Range (mean pIC50)” value is “*** (*** = pIC50 7.00-7.99)”. On to `CC1(C)CC(NC(=O)c2cnc(-c3cc(F)cc(Cl)c3)[se]2)C(=O)N1` (racemic) [Example 82, Racemic 2-(3-Chloro-5-fluorophenyl)-N-(5,5-dimethyl-2-oxopyrrolidin-3-yl)-1,3-selenazole-5-carboxamide], for which the IC50 is 10.2 to 100 nM.

With `CC1(C)CC(NC(=O)c2cnc(-c3cc(F)cc(Cl)c3)s2)C(=S)N1` (racemic) [Example 83, Racemic 2-(3-Chloro-5-fluorophenyl)-N-(5,5-dimethyl-2-thioxopyrrolidin-3-yl)thiazole-5-carboxamide], the IC50 was 1.02 to 10 nM. Take `CC1(C)C[C@@H](NC(=O)c2cnc(-c3cc(F)cc(Cl)c3)s2)C(=O)N1` (single isomer, unassigned) [Example 15]: the IC50 is 102 to 1000 nM. The same measure, in the same setting: then `O=C(N[C@H]1CCNC1=O)c1cnc(-c2cccc3ccoc23)s1` [Example 1, (S)-2-(Benzofuran-7-yl)-N-(2-oxopyrrolidin-3-yl)thiazole-5-carboxamide], with 10.2 to 100 nM; and `O=C(N[C@H]1CCNC1=O)c1cnc(-c2cccc(Cl)c2)s1` [Example 3, (S)-2-(3-Chlorophenyl)-N-(2-oxopyrrolidin-3-yl)thiazole-5-carboxamide], with 10.2 to 100 nM.

As for `O=C(N[C@H]1CCNC1=O)c1cnc(-c2cccc(C(F)(F)F)c2)s1` [Example 4, (S)-N-(2-Oxopyrrolidin-3-v)-2-(3-(trifluoromethyl)phenyl)thiazole-5-carboxamide], the IC50 is 10.2 to 100 nM. On the same count and under the same terms, the figure for `Cc1cccc(-c2ncc(C(=O)N[C@H]3CCNC3=O)s2)c1` [Example 5, (S)-N-(2-Oxopyrrolidin-3-yl)-2-(m-tolyl)thiazole-5-carboxamide] is 1.02 to 10 nM.
